Reference: patent US11208400B2, “Substituted 6-(1H-pyrazol-1-yl)pyrimidin-4-amine derivatives and uses thereof” (Bayer Aktiengesellschaft, priority 2016, dated 2021)

Biological target: T1, human Npt2a (Homo sapiens, UniProt Q06495)
T1 construct: expressed in transfected cells
T1 sequence (Q06495 1-639): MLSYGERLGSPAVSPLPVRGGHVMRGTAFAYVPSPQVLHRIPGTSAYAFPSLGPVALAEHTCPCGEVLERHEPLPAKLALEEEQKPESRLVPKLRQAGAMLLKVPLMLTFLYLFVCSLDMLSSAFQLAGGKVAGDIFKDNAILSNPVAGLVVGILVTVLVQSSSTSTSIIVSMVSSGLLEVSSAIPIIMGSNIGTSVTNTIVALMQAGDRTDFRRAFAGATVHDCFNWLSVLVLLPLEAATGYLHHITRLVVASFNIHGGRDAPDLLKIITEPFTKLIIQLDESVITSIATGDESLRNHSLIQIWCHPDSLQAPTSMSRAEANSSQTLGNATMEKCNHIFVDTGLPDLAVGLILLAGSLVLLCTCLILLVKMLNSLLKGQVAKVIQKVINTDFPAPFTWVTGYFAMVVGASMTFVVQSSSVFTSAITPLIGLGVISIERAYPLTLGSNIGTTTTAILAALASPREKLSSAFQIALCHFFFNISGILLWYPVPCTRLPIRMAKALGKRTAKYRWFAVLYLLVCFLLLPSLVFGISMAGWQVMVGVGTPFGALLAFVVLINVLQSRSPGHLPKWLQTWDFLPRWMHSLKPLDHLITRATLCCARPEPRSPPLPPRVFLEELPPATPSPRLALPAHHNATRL
Assay: Npt2a activity cell based assay, membrane potential dye, CHO T-REx hNpt2a cells
Details: doxycycline-induced, depolarization by sodium phosphate influx, average or median values if tested more than once
Outline: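 Cells were doxycycline-induced CHO T-REx hNpt2a, dye-loaded and pretreated 5 min at RT with 1 nM–50 μM compound in Na-free pH 7.4 buffer. IC50 was fit to the post/pre-trigger fluorescence ratio.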

Structure (SMILES)	IC50
Cc1nn(-c2cc(Nc3nn(C)c(-c4ccc(F)cc4)c3OC(F)F)ncn2)c(C)c1C(F)(F)F [Example 469, N-[4-(difluoromethoxy)-5-(4-fluorophenyl)-1-methyl-1H-pyrazol-3-yl]-6-[3,5-dimethyl-4-(trifluoromethyl)-1H-pyrazol-1-yl]pyrimidin-4-amine]	5 nM
Cc1nn(-c2cc(Nc3c(C)c(-c4ccc(F)cc4)nn3CC3CC3)ncn2)c(C)c1C(F)(F)F [Example 381, N-[1-(cyclopropylmethyl)-3-(4-fluorophenyl)-4-methyl-1H-pyrazol-5-yl]-6-[3,5-dimethyl-4-(trifluoromethyl)-1H-pyrazol-1-yl]pyrimidin-4-amine]	8 nM
Cc1nn(-c2cc(Nc3c(C)c(-c4ccc(C(F)F)nc4)nn3C)ncn2)c(C)c1F [Example 485, N-{3-[6-(difluoromethyl)pyridin-3-yl]-1,4-dimethyl-1H-pyrazol-5-yl}-6-(4-fluoro-3,5-dimethyl-1H-pyrazol-1-yl)pyrimidin-4-amine]	1350 nM
Cc1cc(C(F)F)n(-c2cc(Nc3c(C)c(-c4ccc(F)cn4)nn3C)ncn2)n1 [Example 465, 6-[5-(difluoromethyl)-3-methyl-1H-pyrazol-1-yl]-N-[3-(5-fluoropyridin-2-yl)-1,4-dimethyl-1H-pyrazol-5-yl]pyrimidin-4-amine]	170 nM
CCc1c(Nc2cc(-n3nc(C)cc3C)ncn2)n[nH]c1-c1ccc(F)cc1C [Example 131, 6-(3,5-dimethyl-1H-pyrazol-1-yl)-N-[4-ethyl-5-(4-fluoro-2-methylphenyl)-1H-pyrazol-3-yl]pyrimidin-4-amine]	1600 nM
Cc1nn(-c2cc(Nc3c(C)c(-c4ccc(F)cc4)nn3CC3CC3)ncn2)c(C)c1C(C)O (racemic) [Example 249, (±)-1-[1-(6-{[1-(cyclopropylmethyl)-3-(4-fluorophenyl)-4-methyl-1H-pyrazol-5-yl]amino}pyrimidin-4-yl)-3,5-dimethyl-1H-pyrazol-4-yl]ethanol]	22 nM
CCc1c(Nc2cc(-n3nc(C)c(C#N)c3C)ncn2)nn(C)c1-c1ccc(F)cc1 [Example 112, 1-(6-{[4-ethyl-5-(4-fluorophenyl)-1-methyl-1H-pyrazol-3-yl]amino}pyrimidin-4-yl)-3,5-dimethyl-1H-pyrazole-4-carbonitrile]	59.5 nM
Cc1c(-c2ccc(C#N)cc2)nn(CC2CC2)c1Nc1cc(-n2cccn2)ncn1 [Example 246, 4-[1-(cyclopropylmethyl)-4-methyl-5-{[6-(1H-pyrazol-1-yl)pyrimidin-4-yl]amino}-1H-pyrazol-3-yl]benzonitrile]	340 nM
CCc1c(-c2ccc(F)cc2)nn(Cc2nnn(C)n2)c1Nc1cc(-n2nc(C)cc2C)ncn1 [Example 388, 6-(3,5-dimethyl-1H-pyrazol-1-yl)-N-{4-ethyl-3-(4-fluorophenyl)-1-[(2-methyl-2H-tetrazol-5-yl)methyl]-1H-pyrazol-5-yl}pyrimidin-4-amine]	64 nM
Cc1nn(-c2cc(Nc3nn(C)c(-c4ccc(C#N)cc4)c3C)ncn2)c(C)c1C(C)(C)O [Example 300, 4-[3-({6-[4-(2-hydroxypropan-2-yl)-3,5-dimethyl-1H-pyrazol-1-yl]pyrimidin-4-yl}amino)-1,4-dimethyl-1H-pyrazol-5-yl]benzonitrile]	88 nM
CCc1c(Nc2cc(-n3nc(C)c(Cl)c3C(F)F)ncn2)nn(CC(F)F)c1-c1ccc(F)cc1 [Example 172, 6-[4-chloro-5-(difluoromethyl)-3-methyl-1H-pyrazol-1-yl]-N-[1-(2,2-difluoroethyl)-4-ethyl-5-(4-fluorophenyl)-1H-pyrazol-3-yl]pyrimidin-4-amine]	57 nM
Cc1cc(C(F)F)n(-c2cc(Nc3nn(C)c(-c4ccc(C(F)(F)F)nc4)c3C)ncn2)n1 [Example 552, 6-[5-(difluoromethyl)-3-methyl-1H-pyrazol-1-yl]-N-{1,4-dimethyl-5-[6-(trifluoromethyl)pyridin-3-yl]-1H-pyrazol-3-yl}pyrimidin-4-amine]	15 nM
Cc1nn(-c2cc(Nc3nn(C)c(-c4ccc(F)cc4)c3C3CC3)ncn2)c2ccccc12 [Example 44, N-[4-cyclopropyl-5-(4-fluorophenyl)-1-methyl-1H-pyrazol-3-yl]-6-(3-methyl-1H-indazol-1-yl)pyrimidin-4-amine]	5.35 nM
Cc1nn(-c2cc(Nc3c(C)c(-c4ccc(F)cc4)nn3CC3CC3)ncn2)c(C)c1C(O)C(F)(F)F (single isomer, unassigned) [Example 376, 1-[1-(6-{[1-(cyclopropylmethyl)-3-(4-fluorophenyl)-4-methyl-1H-pyrazol-5-yl]amino}pyrimidin-4-yl)-3,5-dimethyl-1H-pyrazol-4-yl]-2,2,2-trifluoroethanol]	8 nM
Cc1cc(C)n(-c2cc(Nc3c(C#N)c(-c4ccc(F)cc4)nn3C)ncn2)n1 [Example 24, 5-{[6-(3,5-dimethyl-1H-pyrazol-1-yl)pyrimidin-4-yl]amino}-3-(4-fluorophenyl)-1-methyl-1H-pyrazole-4-carbonitrile]	310 nM
COc1c(-c2ccc(F)cc2)nn(CC2CC2)c1Nc1cc(-n2nc(C)c(C(C)=O)c2C)ncn1 [Example 317, 1-[1-(6-{[1-(cyclopropylmethyl)-3-(4-fluorophenyl)-4-methoxy-1H-pyrazol-5-yl]amino}pyrimidin-4-yl)-3,5-dimethyl-1H-pyrazol-4-yl]ethanone]	450 nM
Cc1nn(-c2cc(Nc3nn(CC4CC4)c(-c4ccc(F)cc4)c3Cl)ncn2)c(C)c1C(C)(C)O [Example 160, 2-[1-(6-{[4-chloro-1-(cyclopropylmethyl)-5-(4-fluorophenyl)-1H-pyrazol-3-yl]amino}pyrimidin-4-yl)-3,5-dimethyl-1H-pyrazol-4-yl]propan-2-ol]	1110 nM
Cc1cc(C)n(-c2cc(Nc3cn(-c4ccc(F)cc4)nc3C)ncn2)n1 [Example 77, 6-(3,5-dimethyl-1H-pyrazol-1-yl)-N-[1-(4-fluorophenyl)-3-methyl-1H-pyrazol-4-yl]pyrimidin-4-amine]	2230 nM
CCOC(=O)c1c(C)nn(-c2cc(Nc3c(CC)c(-c4ccc(F)cc4)nn3CC(F)F)ncn2)c1C [Example 180, ethyl 1-(6-{[1-(2,2-difluoroethyl)-4-ethyl-3-(4-fluorophenyl)-1H-pyrazol-5-yl]amino}pyrimidin-4-yl)-3,5-dimethyl-1H-pyrazole-4-carboxylate]	47 nM
Cc1nn(-c2cc(Nc3c(C)c(-c4ccc(F)cc4)nn3CC3CC3)ncn2)c(C)c1O [Example 429, 1-(6-{[1-(cyclopropylmethyl)-3-(4-fluorophenyl)-4-methyl-1H-pyrazol-5-yl]amino}pyrimidin-4-yl)-3,5-dimethyl-1H-pyrazol-4-ol]	17 nM
CCOC(=O)c1c(C)nn(-c2cc(Nc3c(Cl)c(-c4ccc(F)cc4)nn3CC3CC3)ncn2)c1C [Example 158, ethyl 1-(6-{[4-chloro-1-(cyclopropylmethyl)-3-(4-fluorophenyl)-1H-pyrazol-5-yl]amino}pyrimidin-4-yl)-3,5-dimethyl-1H-pyrazole-4-carboxylate]	4 nM
CCc1c(Nc2cc(-n3nc4c(c3O)CCCC4)ncn2)n[nH]c1-c1ccc(F)cc1 [Example 30, 2-(6-{[4-ethyl-5-(4-fluorophenyl)-1H-pyrazol-3-yl]amino}pyrimidin-4-yl)-4,5,6,7-tetrahydro-2H-indazol-3-ol]	620 nM
COCCn1nc(-c2ccc(F)cc2)c(C)c1Nc1cc(-n2nc(C)cc2C)ncn1 [Example 525, 6-(3,5-dimethyl-1H-pyrazol-1-yl)-N-[3-(4-fluorophenyl)-1-(2-methoxyethyl)-4-methyl-1H-pyrazol-5-yl]pyrimidin-4-amine]	4 nM
Cc1nn(-c2cc(Nc3c(C)c(-c4ccc(C#N)cc4)nn3CC3CC3)ncn2)c(C)c1C(O)C(F)(F)F (single isomer, unassigned) [Example 360, 4-{1-(cyclopropylmethyl)-5-[(6-{3,5-dimethyl-4-[(1 S)-2,2,2-trifluoro-1-hydroxyethyl]-1H-pyrazol-1-yl}pyrimidin-4-yl)amino]-4-methyl-1H-pyrazol-3-yl}benzonitrile]	6 nM
Cc1nn(-c2cc(Nc3c(C)c(-c4ccc(F)cc4)nn3CC3CC3)ncn2)c(C)c1Br [Example 406, 6-(4-bromo-3,5-dimethyl-1H-pyrazol-1-yl)-N-[1-(cyclopropylmethyl)-3-(4-fluorophenyl)-4-methyl-1H-pyrazol-5-yl]pyrimidin-4-amine]	3 nM
Cc1nn(-c2cc(Nc3c(C)c(-c4ccc(C#N)cc4)nn3C)ncn2)c(C)c1C(C)(C)O [Example 298, 4-[5-({6-[4-(2-hydroxypropan-2-yl)-3,5-dimethyl-1H-pyrazol-1-yl]pyrimidin-4-yl}amino)-1,4-dimethyl-1H-pyrazol-3-yl]benzonitrile]	17 nM
COc1c(Nc2cc(-n3nc(C)c(C(O)C4CC4)c3C)ncn2)nn(C)c1-c1ccc(C#N)cc1 (racemic) [Example 459, (±)-4-{3-[(6-{4-[cyclopropyl(hydroxy)methyl]-3,5-dimethyl-1H-pyrazol-1-yl}pyrimidin-4-yl)amino]-4-methoxy-1-methyl-1H-pyrazol-5-yl}benzonitrile]	46 nM
